Tests used:
[1] = molecular target: T1, PDGFRα intracellular domain protein (Homo sapiens, UniProt P16234); assay: Determination of platelet-derived growth factor receptor α (PDGFRα) kinase inhibitory activity (AlphaScreen); type: biochemical
T1 construct: 125 ng/ml of PDGFRα intracellular domain protein (UPSTATE); purchased UPSTATE
Protocol: (§1) A test compound dissolved in dimethyl sulfoxide (DMSO) was diluted with a buffer (50 mM Tris-HCl (pH 7.5), 5 mM MgCl2, 5 mM MnCl2, 2 mM dithiothreitol, 0.01% Tween-20). To this compound solution (5 μL) was added a buffer (10 μL) containing 125 ng/ml of PDGFRα intracellular domain protein (UPSTATE) and 250 ng/mL of biotin labeled polypeptide biotinyl-poly-Glu:Tyr (4:1) (CIS bio International). At 5 min after mixing kinase enzyme and the compound and biotin labeled polypeptide, to the obtained mixture was added a buffer (10 μL) containing ATP (25 μM), the mixture was allowed to react at 25° C. for 30 min and the reaction was quenched with 25 μL of a stop solution (100 mM EDTA disodium salt, 62.5 mM HEPES buffer (pH 7.4), 250 mM NaCl, 0.1% bovine serum albumin, 10 μg/mL AlphaScreen assay streptavidin donor beads (Streptavidin Donor beads: PerkinElmer), 10 μg/mL AlphaScreen assay anti-phosphotyrosine recognition antibody PT-66 binding acceptor beads (Anti-phosphotyrosine (P-Tyr-66) Acceptor beads: PerkinElmer)). The reaction solution was allowed to stand at 25° C. for 16 hrs, and the wells were counted using a plate reader Fusion™ (PerkinElmer). The kinase inhibitory rate (%) of the test compound was calculated by the following formula: Inhibitory rate(%)=(1−(count of test compound−blank)÷(control−blank))×100
(§2) The count of the solution reacted without addition of the compound was used as a “control”, and the count of the solution without the compound and ATP was used as a “blank”.

[2] = molecular target: T2, PDGFRβ intracellular domain protein (Homo sapiens, UniProt P09619); assay: Determination of platelet-derived growth factor receptor β (PDGFRβ) kinase inhibitory activity (AlphaScreen); type: biochemical
T2 construct: 125 ng/ml of PDGFRβ intracellular domain protein (UPSTATE); purchased UPSTATE
Protocol: as §1, with “of PDGFRβ” for “of PDGFRα”, “Donor Beads:” for “Donor beads:”, “test compound[…])÷(control−blank))×100” for “test compound−blank)÷(control−blank))×100”
as §2

[3] = tested on: Human umbilical vein-derived vascular endothelial cells (HUVEC); assay: Vascular endothelial cell growth inhibitory test (VEGF-stimulated HUVEC, XTT); type: cell-based; conditions: 120 h, 5 days of culture
Protocol: To be specific, HUVEC was suspended in a vascular endothelial cell medium containing the aforementioned 5% bovine fetal serum and plated on a 96 well flat bottom plate by 50 μL (3000 cells) each well. After culture overnight, various concentrations of the test substance and 120 ng/mL of vascular endothelial growth factor (VEGF) were dissolved in a vascular endothelial cell medium containing 5% bovine fetal serum and added to each well by 50 μL. After 5 days of culture, a XTT reagent (Wako Pure Chemical Industries, Ltd.) was added to each well by 10 μL, and the mixture was reacted in an incubator at 37° C., 5% carbon dioxide for 2-3 hr. The absorbance at 450 nm was measured by a microtiter plate reader and the cell growth inhibitory activity was determined.

[4] = molecular target: T3, VEGFR2 intracellular domain protein (Homo sapiens, UniProt P35968); assay: Determination of vascular endothelial growth factor receptor 2 (VEGFR2) kinase inhibitory activity (AlphaScreen); type: biochemical; conditions: read-out: VEGFR2 kinase inhibitory rate
T3 construct: made in house; host or cells: SF-21 insect cells, recombinant baculovirus BAC-VEGFR2
Protocol: Human vascular endothelial growth factor receptor 2 (hereinafter to be referred to as VEGFR2) gene was cloned by PCR using cDNA Libraries Human Placenta (Clontech) as a template. The primer used for PCR was prepared from base sequence (Genbank Accession AF035121) information of VEGFR2 gene by adding a base sequence encoding flag peptide and a recognition sequence of the restriction enzyme to a base sequence (2671-4374 of Genbank Accession AF035121) encoding the VEGFR2 intracellular domain region, so that the protein contains an N-terminal Flag tag. The primer base sequence is shown below.
SF-21 cells were sown at 1×10^6 cells/mL to Sf-900II SFM medium (1 L, Invitrogen) containing 10% fetal bovine serum (trace), 50 mg/L Gentamicin (Invitrogen) and 0.1% Pluronic F-68 (Invitrogen), and shaking culture was performed using a 2 L volume Erlenmeyer flask at 27° C., 100 rpm. After culturing for 24 hrs, recombinant baculovirus BAC-VEGFR2 (13.4 mL) was added to the mixture, and the mixture was further cultured for 3 days. The culture medium was centrifuged at 2,000 rpm for 5 min to give virus-infected cells. The infected cells were washed with a phosphate buffered saline (Invitrogen), centrifuged under the same conditions, and the cells were preserved at −80° C. The cryopreserved cells were thawed in ice, suspended in buffer A (50 mM Tris buffer (30 mL, pH 7.4) containing 20% glycerol, 0.15 M NaCl) supplemented with Complete Protease Inhibitor (Boehringer), and ruptured 3 times with a Polytron homogenizer (Kinematica) at 20,000 rpm for 30 sec. The ruptured medium was clarified by centrifugation at 40,000 rpm for 30 min and filtered with a 0.45 μm filter. The filtrate was passed through a column packed with Anti-FLAG M2 Affinity Gel (4 mL, Sigma) at a flow rate of about 0.5 mL/min. The column was washed with buffer A, and eluted with buffer A containing 100 μg/mL of FLAG peptide. The eluate was concentrated with Vivaspin 20 (Vivascience) having a molecular weight cut off of 30K. The buffer of this concentrate was exchanged using NAP™ 25 column (Amersham Bioscience) equilibrated with buffer A. The fractions containing intracellular domain protein of VEGFR2 were collected, glycerol was added to the final concentration of 50% and cryopreserved at −80° C.
A test compound dissolved in dimethyl sulfoxide (DMSO) was diluted with a buffer (50 mM Tris-HCl (pH 7.5), 5 mM MgCl2, 5 mM MnCl2, 2 mM dithiothreitol, 0.01% Tween-20). To this compound solution (5 μL) was added a buffer (10 μL) containing 50 ng/mL of VEGFR2 intracellular domain protein and 250 ng/mL of biotin labeled polypeptide biotinyl-poly-Glu:Tyr (4:1) (CIS bio International). To the obtained mixture was added a buffer (10 μL) containing ATP (25 μM), the mixture was allowed to react at 25° C. for 5 min and the reaction was quenched with 25 μL of a stop solution (100 mM EDTA disodium salt, 62.5 mM HEPES buffer (pH 7.4), 250 mM NaCl, 0.1% bovine serum albumin, 10 μg/mL AlphaScreen assay streptavidin donor beads (Streptavidin Donor beads: PerkinElmer), 10 μg/mL AlphaScreen assay anti-phosphotyrosine recognition antibody PY-100 binding acceptor beads (Anti-phosphotyrosine (P-Tyr-100) Acceptor beads: PerkinElmer)). The reaction solution was allowed to stand at 25° C. for 16 hrs, and the wells were counted using a plate reader Fusion™ (PerkinElmer). The kinase inhibitory rate (%) of the test compound was calculated by the following formula: Inhibitory rate(%)=(1−(count of test compound−blank)÷(control−blank))×100

T2 sequence (P09619 554-1106 limits assumed): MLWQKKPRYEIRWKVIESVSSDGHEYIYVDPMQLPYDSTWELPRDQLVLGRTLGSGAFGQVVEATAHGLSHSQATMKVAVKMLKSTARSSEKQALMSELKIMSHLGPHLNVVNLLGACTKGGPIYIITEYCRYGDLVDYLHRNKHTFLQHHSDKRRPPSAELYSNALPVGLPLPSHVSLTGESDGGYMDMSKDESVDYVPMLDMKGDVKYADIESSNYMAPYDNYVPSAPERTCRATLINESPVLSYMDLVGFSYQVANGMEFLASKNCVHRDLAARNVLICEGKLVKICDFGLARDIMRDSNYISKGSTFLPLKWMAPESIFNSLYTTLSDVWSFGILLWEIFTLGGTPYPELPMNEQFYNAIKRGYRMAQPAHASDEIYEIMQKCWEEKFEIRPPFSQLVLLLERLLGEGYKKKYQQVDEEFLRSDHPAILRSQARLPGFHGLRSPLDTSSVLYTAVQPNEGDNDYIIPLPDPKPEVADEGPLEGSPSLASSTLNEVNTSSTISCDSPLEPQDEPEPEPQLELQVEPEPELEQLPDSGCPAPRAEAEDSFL
T3 sequence (P35968 786-1356 limits assumed): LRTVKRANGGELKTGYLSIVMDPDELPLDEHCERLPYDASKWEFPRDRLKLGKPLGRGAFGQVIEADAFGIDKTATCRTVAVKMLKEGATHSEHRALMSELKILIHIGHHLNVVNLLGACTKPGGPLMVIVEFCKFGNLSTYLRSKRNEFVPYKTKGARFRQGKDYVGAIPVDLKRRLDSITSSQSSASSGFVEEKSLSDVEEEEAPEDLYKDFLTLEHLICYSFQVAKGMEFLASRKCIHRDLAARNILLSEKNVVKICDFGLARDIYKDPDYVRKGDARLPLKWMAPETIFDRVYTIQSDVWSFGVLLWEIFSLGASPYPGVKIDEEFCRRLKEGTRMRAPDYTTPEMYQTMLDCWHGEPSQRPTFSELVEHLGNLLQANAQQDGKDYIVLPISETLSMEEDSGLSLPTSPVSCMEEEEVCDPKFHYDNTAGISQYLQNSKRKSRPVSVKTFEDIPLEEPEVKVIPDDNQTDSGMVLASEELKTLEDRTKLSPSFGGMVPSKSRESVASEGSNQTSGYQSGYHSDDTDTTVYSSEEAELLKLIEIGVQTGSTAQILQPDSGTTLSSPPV
T1 sequence (P16234 550-1089 limits assumed): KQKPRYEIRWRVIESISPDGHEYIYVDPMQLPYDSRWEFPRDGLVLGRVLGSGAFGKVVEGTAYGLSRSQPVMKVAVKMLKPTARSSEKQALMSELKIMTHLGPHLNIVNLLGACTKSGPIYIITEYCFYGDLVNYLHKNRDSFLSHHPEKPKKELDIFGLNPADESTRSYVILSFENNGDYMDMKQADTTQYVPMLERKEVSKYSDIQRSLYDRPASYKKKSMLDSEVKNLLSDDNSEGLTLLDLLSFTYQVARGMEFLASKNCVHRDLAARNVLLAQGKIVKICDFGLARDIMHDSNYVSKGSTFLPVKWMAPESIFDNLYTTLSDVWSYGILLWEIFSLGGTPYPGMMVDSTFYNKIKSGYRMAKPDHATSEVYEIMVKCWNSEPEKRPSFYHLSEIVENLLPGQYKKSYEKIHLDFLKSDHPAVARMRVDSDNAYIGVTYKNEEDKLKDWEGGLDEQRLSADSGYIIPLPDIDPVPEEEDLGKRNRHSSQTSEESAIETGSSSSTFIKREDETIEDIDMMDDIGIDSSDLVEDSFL

| SMILES | IC50 [1] [nM] | IC50 [2] [nM] | inhibition at 1 µM [4] [%] | IC50 [3] [nM] |
| --- | --- | --- | --- | --- |
| CCc1nc(C)c(C(=O)Nc2cc(Oc3ccc4nc(NC(=O)C5CC5)cn4n3)ccc2F)o1 [Example 314, N-[5-({2-[(cyclopropylcarbonyl)amino]imidazo[1,2-b]pyridazin-6-yl}oxy)-2-fluorophenyl]-2-ethyl-4-methyl-1,3-oxazole-5-carboxamide] | ≤ 500 | ≤ 500 | ≥ 90 | ≤ 500 |
| COc1cc(C(=O)Nc2cc(Oc3ccc4nc(NC(=O)C5CC5)cn4n3)ccc2F)n(C)n1 [Example 180, N-[5-({2-[(cyclopropylcarbonyl)amino]imidazo[1,2-b]pyridazin-6-yl}oxy)-2-fluorophenyl]-3-methoxy-1-methyl-1H-pyrazole-5-carboxamide] | ≤ 500 | ≤ 500 | ≥ 90 | ≤ 500 |
| Cc1ccc(Oc2ccc3nc(NC(=O)C4CC4)cn3n2)cc1NC(=O)c1scnc1C [Example 298, N-[5-({2-[(cyclopropylcarbonyl)amino]imidazo[1,2-b]pyridazin-6-yl}oxy)-2-methylphenyl]-4-methyl-1,3-thiazole-5-carboxamide] | ≤ 500 | ≤ 500 | ≥ 90 | ≤ 500 |
| Cc1cc(C(=O)Nc2cc(Oc3ccc4nc(NC(=O)C5CC5)cn4n3)ccc2F)n(C)n1 [Example 148, N-[5-({2-[(cyclopropylcarbonyl)amino]imidazo[1,2-b]pyridazin-6-yl}oxy)-2-fluorophenyl]-1,3-dimethyl-1H-pyrazole-5-carboxamide] | ≤ 500 | ≤ 500 | ≥ 90 | ≤ 500 |
| CCc1cc(C(=O)Nc2cc(Oc3ccc4nc(NC(=O)C5CC5)cn4n3)ccc2F)n(C)n1 [Example 208, N-[5-({2-[(cyclopropylcarbonyl)amino]imidazo[1,2-b]pyridazin-6-yl}oxy)-2-fluorophenyl]-3-ethyl-1-methyl-1H-pyrazole-5-carboxamide] | ≤ 500 | ≤ 500 | ≥ 90 | ≤ 500 |
| CC#CC(=O)Nc1cc(Oc2ccc3nc(NC(=O)C4CC4)cn3n2)ccc1C [Example 241, N-{6-[3-(but-2-ynoylamino)-4-methylphenoxy]imidazo[1,2-b]pyridazin-2-yl}cyclopropanecarboxamide] | ≤ 500 | ≤ 500 | ≥ 90 | ≤ 500 |

The next lines start with results.

| IC50 [1] [nM] | IC50 [2] [nM] | inhibition at 1 µM [4] [%] | SMILES | IC50 [3] [nM] |
| --- | --- | --- | --- | --- |
| ≤ 500 | ≤ 500 | ≥ 90 | Cc1cc(C(=O)Nc2cc(Oc3ccc4nc(NC(=O)C5CC5C)cn4n3)ccc2F)n(C)n1 (stereo not drawn) [Example 243, N-{2-fluoro-5-[(2-{[(2-methylcyclopropyl)carbonyl]amino}imidazo[1,2-b]pyridazin-6-yl)oxy]phenyl}-1,3-dimethyl-1H-pyrazole-5-carboxamide] | ≤ 500 |
| ≤ 500 | ≤ 500 | ≥ 90 | Cc1cc(C(=O)Nc2cccc(Nc3ccc4nc(NC(=O)C5CC5)cn4n3)c2)n(C)n1 [Example 317, N-[3-({2-[(cyclopropylcarbonyl)amino]imidazo[1,2-b]pyridazin-6-yl}amino)phenyl]-1,3-dimethyl-1H-pyrazole-5-carboxamide] | ≤ 500 |
| ≤ 500 | ≤ 500 | ≥ 90 | Cn1nccc1C(=O)Nc1cc(Oc2ccc3nc(NC(=O)C4CC4)cn3n2)ccc1F [Example 287, N-[5-({2-[(cyclopropylcarbonyl)amino]imidazo[1,2-b]pyridazin-6-yl}oxy)-2-fluorophenyl]-1-methyl-1H-pyrazole-5-carboxamide] | ≤ 500 |
| ≤ 500 | ≤ 500 | ≥ 90 | Cc1nn(C)cc1C(=O)Nc1cc(Oc2ccc3nc(NC(=O)C4CC4)cn3n2)ccc1F [Example 173, N-[5-({2-[(cyclopropylcarbonyl)amino]imidazo[1,2-b]pyridazin-6-yl}oxy)-2-fluorophenyl]-1,3-dimethyl-1H-pyrazole-4-carboxamide] | ≤ 500 |
| ≤ 500 | ≤ 500 | ≥ 90 | Cc1cccnc1C(=O)Nc1cccc(Oc2ccc3nc(NC(=O)C4CC4)cn3n2)c1 [Example 187, N-[3-({2-[(cyclopropylcarbonyl)amino]imidazo[1,2-b]pyridazin-6-yl}oxy)phenyl]-3-methylpyridine-2-carboxamide] | ≤ 500 |
| ≤ 500 | ≤ 500 | ≥ 90 | CCc1cc(C(=O)Nc2cc(Oc3ccc4nc(NC(=O)C5CC5)cn4n3)ccc2Cl)n(C)n1 [Example 247, N-[2-chloro-5-({2-[(cyclopropylcarbonyl)amino]imidazo[1,2-b]pyridazin-6-yl}oxy)phenyl]-3-ethyl-1-methyl-1H-pyrazole-5-carboxamide] | ≤ 500 |

Reference: patent US8034812B2, “Imidazopyridazine derivative having kinase inhibitory activity and pharmaceutical agent thereof” (Takeda Pharmaceutical Company Limited, priority 2006, dated 2011)
